From patent publication US20130071439A1, “METHODS AND COMPOSITIONS FOR TREATING BIOFILMS” (PRESIDENT AND FELLOWS OF HARVARD COLLEGE, priority 2010, published 2013)

Tests used:
[1] = system: Pseudomonas aeruginosa; experiment: Attached single cells in 6 well plate, Syto-9/SYTOX staining; type: cell-based
Procedure: An alternative method to observe biofilm formation on a 6 well plate with or without D-amino acids and using Syto-9 staining was as follows: Pseudomonas aeruginosa biofilms were washed twice with PBS and then fixed for at least an hour in 5% Glutaraldehyde in PBS. The fixed biofilms were then rinsed once again with PBS and soaked in 0.1% v/v Triton X-100 in PBS (PBST) for 15 minutes. The solution was exchanged with 0.1 nM SYTOX green (Invitrogen) in cold PBST and gently rocked in the dark for at least 15 minutes. Fluorescence images of the biofilms were captured with a Leica DMRX compound microscope using a Xe lamp and a K3 Leica filtercube. […] The amount of attached single cells was quantified using image J. The decrease in the amount of cells attached to the epoxy surfaces soaked with D-aa compared with the L-aa control was substantially more.

[2] = system: B. subtilis; experiment: Disruption of existing biofilms (3 day-old pellicles); type: cell-based, Bacillus subtilis; settings: 3 μM added to 3 day-old culture, 8 hours
[3] = system: B. subtilis strain NCIB3610; experiment: Colony biofilm formation on solid MSgg medium; type: cell-based, Bacillus subtilis; settings: 3 μM, 4 days
Procedure: (§1) For colony formation on solid medium, cells were first grown to exponential growth phase in LB broth and 3 μl of culture were spotted onto solid MSgg medium containing 1.5% Bacto agar. The plates were incubated at 23° C. For pellicle formation in liquid medium, cells were grown to exponential phase and 6 μl of culture were mixed with 6 ml of medium in a 12-well plate (VWR). Plates were incubated at 23° C. Images of colonies and pellicles were taken using a SPOT camera (Diagnostic Instruments, USA).

[4] = system: B. subtilis strain NCIB3610; experiment: Pellicle (biofilm) formation in liquid biofilm-inducing medium; type: cell-based, Bacillus subtilis
Procedure: as §1
To investigate whether mature biofilms produce a factor that triggers biofilm disassembly, the effect of concentrated and partially purified extracts of conditioned medium on pellicle formation when added to fresh medium was assayed. To this end, conditioned medium from an eight-day-old culture was applied to a C18 Sep Pak column. Concentrated eluate from the column was then added to a freshly inoculated culture. […] Further purification of the factor was achieved by eluting the cartridge in step-wise fashion with increasing concentrations of methanol.
D-tyrosine, D-leucine, D-tryptophan, and D-methionine were screened for inhibiting biofilm formation by B. subtilis both in liquid and on solid medium (FIG. 2A, 5, 6).
Next, the minimum concentration (MIC for Minimal Inhibitory Concentration) needed to prevent biofilm formation was determined.

## N[C@H](Cc1ccc(O)cc1)C(=O)O [D-Tyr, D-tyrosine]
[1]
  number of cells attached to the bottom of the biofilm plate: dramatic decrease
[2]
  effect on existing pellicles: conspicuous breakdown of pellicles
[3]
  effect on biofilm formation on solid medium: inhibited biofilm formation
[4]; 3 μM added to freshly inoculated culture in biofilm-inducing medium, 3 days
  effect on pellicle formation: significant inhibition of biofilm growth
[4]; complete inhibition of pellicle formation
  minimum concentration (MIC/MBIC) needed to prevent biofilm formation: about 100 nM
[4]; concentration not given
  biofilm-inhibition assay for B. subtilis: significant inhibition of biofilm growth
